Experimental data as given in ChEMBL document CHEMBL3507680, “University of Dundee, Gates Library screen for HepG2 cell viability”.

Test: Human HepG2 cell viability assay in 384 well format
Format: toxicity, cell-based
Design: dose 125 nL, time 70.5 hour; cytotoxicity at 70.5 h: concentration not given beside the values
Conditions: HepG2 cells, read-out: Inhibition

Structure (SMILES)	cytotoxicity at 70.5 h
CCOCCOC(C)C(=O)Nc1ccc2ccn(CCN(C)C)c2c1 (centres undefined)	-1.63%
CN(C)c1nccc(NC(=O)c2ccncc2)n1	-7.12%
CC(C)(C)Oc1ccc(C(=O)N2CCOCC2c2ncon2)cc1 (centres undefined)	-0.751%
O=C(c1ccc(SC(F)F)cc1)N1CCOCC1c1ncon1 (centres undefined)	-3.71%
CC(C)CC(NC(=O)C1=CCCC1)C(=O)N1CCC(CO)CC1 (centres undefined)	0.304%
CC(C)c1nc(C2CCCN(C(=O)CN3CCN(C)CC3)C2)no1 (centres undefined)	-7.22%
CC(C)=CCS(=O)(=O)Cc1ccn(-c2cccc(F)c2)n1	-6.79%
CCn1nc(C)c(CNC(=O)NCC(C)(O)c2ccccc2)c1C (centres undefined)	-3.1%
CC(C)c1nc(C2CCCN(C(=O)CN3CCCNC3=O)C2)no1 (centres undefined)	-6.67%
CC(C)NC(=O)CCNC(=O)Nc1cnn(-c2ccccc2Cl)c1	-6.67%
CCOC(=O)c1cnn(-c2cc(C)ccn2)c1N	8.9%
CCN1CCCN(c2ccc(-n3ccc(C)n3)nn2)CC1	10.6%
CC(C)(C(=O)NCCS(N)(=O)=O)c1cccc(Br)c1	-6.85%
CC(CCc1ccccc1F)C(=O)NS(=O)(=O)CC1CC1 (centres undefined)	-0.115%
CC(=O)c1c(C)cc(C)c(CS(=O)(=O)c2nccn2C)c1C	8.95%
CC1CN(S(=O)(=O)c2ccc(F)cc2F)c2cccnc2O1 (centres undefined)	-6.28%
Cc1ccc(S(=O)(=O)N2CC(C)Oc3ncccc32)c(C)c1 (centres undefined)	-4.94%
CCOC(=O)C1CCN(C(=O)CN2CCCC2Cc2ccccc2)CC1 (centres undefined)	-17.2%
Cn1cc(C2(C)CN(Cc3ccc(N4CCCC4)nc3)CCO2)cn1 (centres undefined)	-10.5%
CCc1ccc(C(C)NC(=O)CN(C)Cc2ccc(C)o2)cc1 (centres undefined)	-15%

Structure (SMILES)	cytotoxicity at 70.5 h
N#CCCNC(=O)CSc1cc(F)ccc1F	-9.07%
O=C(NCC(O)c1ccc(F)cc1F)c1ccccc1 (centres undefined)	-4.27%
Cc1cccc(C(=O)NCC(O)c2ccc(F)cc2F)c1 (centres undefined)	-0.893%
CN(CCC#N)C(=O)CSc1cc(F)ccc1F	5.2%
N#CCCNC(=O)CSc1ccc(F)cc1F	-5.86%
Cc1nc(NC(=O)C(C)N2CCN(c3cnccn3)CC2)sc1C (centres undefined)	-4.32%
Cc1cccc(C(=O)NCc2ccc(OCCN(C)C)cc2)c1C	-6.51%
COc1c(C)cnc(CNC(=O)c2cc(C)nc3c2c(C)nn3C)c1C	-6.5%
Cc1cc(CN(C)C(=O)NCc2ccnc(N(C)C)c2)no1	-1.17%
CCCS(=O)(=O)N1CCC(NCc2c(C)nn(C)c2OC)CC1	-7.02%
COc1c(CNC2CCN(CC(=O)NC3CC3)CC2)c(C)nn1C	2.59%
N#Cc1ccccc1N1CCN(C(=O)NCCN2CCOCC2)CC1	0.377%
CC(C)Nc1cccc(C(=O)NCC(O)c2cccc(F)c2)c1 (centres undefined)	-6.04%
Fc1ccc(-c2n[nH]cc2CNCCn2cccn2)cc1	-4.83%
Fc1ccc(CNCCn2cccn2)c(Cl)c1	6.68%
COc1ccc(F)cc1C[S+]([O-])CC(=O)NCc1ccccc1C (centres undefined)	11%
Cc1ncsc1CCN1CCC(N(C)Cc2ncc(C(C)C)o2)C1 (centres undefined)	38.4%
NC(=O)CN1CCN(c2ccnc3c(F)ccc(F)c23)CC1	-1.57%
CN(C)C(=O)CN1CCN(c2ccnc3c(F)ccc(F)c23)CC1	-4.33%
Cc1cc(NC(=O)CNC(C)(C)c2ccc3c(c2)OCO3)on1	-2.77%

Structure (SMILES)	cytotoxicity at 70.5 h
NC(=O)c1cnc(NC2CCN(c3ccccn3)CC2)c(Cl)c1	-6.48%
Cc1cc(NC(=O)CNC(C)(C)c2ccc3c(c2)OCCO3)no1	2.35%
CCOCCCC(=O)Nc1c(-c2ccc(F)cc2)ncn1C	0.124%
Cc1[nH]c(=O)sc1S(=O)(=O)N1CCCC1C(=O)NC1CC1 (centres undefined)	-6.92%
CCOCC(=O)Nc1cc(C)cnc1OC	-3.98%
CCOCCC(=O)Nc1cc(C)cnc1OC	14.7%
CCc1nc(CNC(=O)Nc2nc(COC)cs2)cs1	-5.86%
O=C(c1csc(-c2ccco2)n1)N1CCN2CCCCC2C1 (centres undefined)	-4.49%
Cc1ccc(OCCC(=O)NCCCN2CCCC2=O)c(C)c1	17.8%
CCc1ncc2c(n1)CN(CC(O)COc1ccc(C#N)cc1)CC2 (centres undefined)	-0.808%
COc1cccc2[nH]cc(CCNC(=O)N3CCC[C@H]3CO)c12	-1.09%
COc1cc2c(nn1)CCN(CC(O)COc1ccc(C#N)cc1)C2 (centres undefined)	17.8%
CCS(=O)(=O)NCCCNc1cc(N2CCCC2CO)ncn1 (centres undefined)	-4.09%
O=C(NCCNc1ncccn1)N1CCCC1c1ccc(F)cc1 (centres undefined)	-9.37%
O=C(NCC(F)(F)F)C1CSCN1S(=O)(=O)c1cccc(F)c1 (centres undefined)	-12%
COCC(=O)NCCCn1nc2ccccn2c1=O	-15.5%
CC(C)c1nn(C)c(N2CCOCC2)c1CNCc1cscn1	-14.5%
COc1ccccc1C(=O)NCCCN1CCCC1C(=O)N(C)C (centres undefined)	-14.3%
O=C(CCc1ccccn1)N1CCCC(N2CCNC2=O)C1 (centres undefined)	-14.8%
